Laboratory results as given in patent US7906477B2 (Genspera, Inc., priority 2002, dated 2011).
Square brackets hold non-standard residues; d marks the D form. Ends that are not written are not given here. Peptide text beside a SMILES is read from it. * marks the point of attachment. X1 = C/C=C(/C)C(=O)O[C@H]1C(C)=C2[C@H]([C@@H]1OC(=O)CCCCCCC)[C@@](C)(OC(C)=O)C[C@H](OC(=O)CCCCCCCCCCCN*)[C@@]1(O)[C@H]2OC(=O)[C@@]1(C)O; Tyr(3-NO2) = N[C@@H](Cc1ccc(O)c([N+](=O)[O-])c1)C(=O)O; AMC = Cc1cc(=O)oc2cc(N*)ccc12; Abz = aminobenzoic acid; Dap = NC[C@H](N)C(=O)O

Columns and labels:
[1] = tested on: human prostate cancer cells; details: human prostate cancer cells in vitro; cited from earlier work
[2] = plasma stability in 50% human plasma; format: in vitro ADME; details: 50% fresh heparinized plasma, 24 hours, room temperature, HPLC and MALDI-TOF
Procedure: FIG. 5 depicts the stability of Ac-GKAFRR-L12ADT (SEQ ID NO:41) in human plasma after a 24 hour incubation, as determined by HPLC analysis. Ac-GKAFRR-L12ADT (SEQ ID NO:41) was incubated in 50% human plasma for 24 hours at room temperature. Peak 1 represents an unidentified plasma contaminant that was also present in control plasma. Peaks 2 and 3 both represent Ac-GKAFRR-L12ADT (SEQ ID NO:41) as confirmed by MALDI-TOF mass spectrometric analysis.
Mouse plasma was obtained from cardiac puncture of anesthetized mice prior to euthanization by CO2 overdose according to protocols approved by the Johns Hopkins Animal Care and Use Committee. Human plasma was obtained from discarded, pooled, and unlabeled clinical samples. Plasma was diluted to 50% in Tris buffer (50 mM Tris-HCl, 100 mM NaCl, pH 7.8). To this, test peptides/prodrugs were added to 250 or 500 μM final concentration. After the incubation period, one volume (200 μl) of acetonitrile was added to precipitate the protein fraction and the tube was centrifuged at 14,000 for 2 min. The supernatant was analyzed by C18-HPLC and the collected peaks were analyzed by MALDI-TOF as described above.
Arginine-containing peptides are potential substrates for the wide variety of other trypsin-like proteases that are present in the blood and may have residual activity in the blood. The plasma stability of an hK2 peptide substrate may therefore be limited and this would have significant consequences related to the development of an hK2 activated prodrug. Therefore, two fluorescence quenched hK2 peptide substrates peptides were incubated in 50% mouse or human plasma (diluted in PBS buffer) to determine stability using a plate-reader. As observed with arginine containing peptides from the SPOT analysis above, none of the arginine-containing, fluorescence quenched hK2peptide substrates were stable in human or mouse plasma. Fluorescence-quenched Y′GKAFRR-Dap-GK′ (SEQ ID NO:42) and Y′GKAFRRLGK′ (SEQ ID NO:21) (500 μM each) were hydrolyzed when incubated in 50% mouse or human plasma (FIG. 7). Mouse plasma degraded the peptides faster than human plasma (FIG. 7). […] In human plasma, more peptide remained after 3 hours (˜25%). […] The proteolytic activity from plasma was never affected by repeated freeze-thaw cycles or by storage of the mouse plasma alone at room temperature for several days.
To determine the plasma stability for the hK2 prodrug, the prodrug was incubated in 50% fresh heparinized (1%) plasma for 24 hours at room temperature, precipitated the proteins by adding one volume of 1% TFA in acetonitrile and analyzed the supernatant by HPLC. Unexpectedly, BPLC analysis after 24 hrs incubation in plasma yielded only a single peak corresponding to the hK2 prodrug (FIG. 5). MALDI-TOF MS of the isolated single peak confirmed the stability of the molecule.

[3] = pharmacokinetics after single intravenous dose, plasma levels by LC/MS/MS; format: in vivo, mouse; details: Balb-C mice, single intravenous dose 3.67 μmoles/kg
Procedure: FIG. 9 depicts pharamacokinetic analysis of GKAFRR-L12ADT (SEQ ID NO:44) following single intravenous injection of 3.67 μmole/kg. Mice were treated in groups of 3 and then sacrificed at indicated time points. Data represent average±standard error of plasma concentrations as determined by LC-MS analysis.
Calibration standards consisted of ac-GKAFRR-L12ADT prodrug, RL12ADT or L12ADT spiked into mouse plasma and plasma samples from treated mice were analyzed by liquid chromatography coupled to a quadrupolequadripole mass spectrometer (LC/MS/MS) [PESciex API 3000]. A multistep gradient elution HPLC method was used to separate the ac-GKAFRR-L12ADT prodrug from the free RL12ADT and L12ADT with eluent A=2 mM ammonium acetate with 0.1% formic acid 1% acetic acid in deionized water and eluent B=90% acetonitrile/1% acetic acid/[…]. Samples were eluted through a Zorbax SB-C18 Rapid Resolution column (2/1×30 mm, 3.5 μm) at a flow rate of 0.3 ml/min and gradient of 100% A to 100% B over 12 minutes. Calibration was done using extracted standards of ac-GKAFRR-L12ADT added to and then extracted from mouse plasma in a range of 0.001-10 μM, and linear regression analysis was used to generate best-fit lines, from which peak areas of samples were converted to concentration of prodrug. Peak areas of RL12ADT and L12ADT were below limit of detection at all time points and, therefore, calibration was not performed. Single-dose pharmacokinetics were assessed by noncompartmental analysis (Gibaldi, M. and Perroer, D. Pharmacokinetics, 2nd edition, p. 407-409. New York, 1982) The area under the curve from time zero to infinity (AUC0-∞) was calculated with the linear trapezoidal method (Gibaldi, M. and Perroer, D. Pharmacokinetics, 2nd edition, p. 407-409. New York, 1982)). The terminal half-life (T1/2) was determined from the terminal slope (ke) on a log-linear plot of concentration versus time.
To determine pharmacokinetic parameters for the hK2-activated thapsigargin prodrug, Balb-C mice (n=3/timepoint) were treated with a single intravenous dose of 3.67 μmoles/kg of the ac-GKAFRR-L12ADT (SEQ ID NO:41) prodrug. At various time points (5, 10, 30 minutes and 1, 1.5, 2, 3, 4, 6, 12, 24 hrs) mice were sacrificed after blood was obtained by cardiac puncture. After precipitating serum proteins with acetonitrile, supernatants were evaluated by LC-MS to determine concentrations of ac-GKAFRR-L12ADT (SEQ ID NO:41), R-L12ADT and L12ADT at each time points. Areas under the curve were converted to concentrations based on a standard curve that was linear for concentrations ranging from 1 nM to 10,000 nM. […] Both RL12ADT and L12ADT were below the lower limit of detection (i.e. <1 nM) for all time points, FIG. 6.

[4] = tested on: Balb-C mice; test: in vivo toxicity, single and repeated intravenous injection; set-up: species or system mouse
Procedure: To determine in vivo toxicity of ac-GKAFRR-L12ADT (SEQ ID NO:41), Balb-C mice (Harlan) received a single intravenous injection of an increasing dose of prodrug. Mice were monitored for toxicity hourly for twelve hours and then daily×one week. Separate groups of three mice each received increasing doses of ac-GKAFRRL12ADT (SEQ ID NO:41). […] All animals receiving doses less than LD100 were alive and well up to 1 week after receiving a single dose. All procedures were performed according to protocols approved by the Johns Hopkins Animal Care and Use Committee.
Balb-C mice were treated in groups of 3with a single intravenous injection of increasing doses of the ac-GKAFRR-L12ADT (SEQ ID NO:41) prodrug to establish the dose that killed 100% of mice (i.e. LD100). […] All mice, however, tolerated a single intravenous dose of 3.67 μmoles/kg and this dose was then used for further dosing and pharmacokinetic studies.

[5] = tested on: Cathepsin D; test: Cathepsin D, 1 μg/ml
[6] = tested on: Cathepsin B; test: Cathepsin B, 1 μg/ml
[7] = tested on: hK2; test: hK2 (4 μg/ml) in 50 mM Tris, 0.1 M NaCl, pH 7.8; details: human, room temperature, up to 24 hours
[8] = tested on: Plasmin; test: Plasmin, 1 μg/ml
[9] = tested on: Urokinase; test: Urokinase, 1 μg/ml
[10] = 50% fresh heparinized (1%) plasma; 50% human plasma; details: room temperature, up to 24 hours
[11] = target: T1, hK2 (Homo sapiens, UniProt P20151); details: previously reported; cited from earlier work
T1 construct: made in house

[12] = target: T1, hK2; test: on-bead digestion of PEGA-bound fluorescence-quenched peptides by hK2; format: biochemical; details: 4 μg/ml hK2, PEGA resin
Procedure: For screening, approximately 1 ml of resin (˜65,000 beads) was first suspended in methanol in a Petri dish and examined under transilluminant UV light (302 nm) to detect any falsely positive fluorescent beads prior to addition of protease. After removal of ˜40-50 beads, the resin was washed with water and finally suspended in 10 ml buffer in a glass Petri dish. After a final screen for false-positives, hK2 was added from a frozen stock solution to make 4 μg/ml final. Fluorescent beads were selected and removed with a micropipette, washed with 1 M NaCl, water, DMF, MeOH, water and stored in MeOH at −20° C.
Additionally, Walle and co-workers (Thorpe, D. S. and Walle, S. (2000) Biochem. Biophys. Res. Commun. 269:591-595) published data from a small combinatorial library to find linkers for the optimal display of peptide ligands to various protein targets. They reported that the insertion of a dipeptide consisting of a cationic residue together with a hydrophobic residue presents a general method for optimizing peptide display on solid phase beads. […] The test peptide Y′GKAFRL-Dap-F-K′-PEGA (SEQ ID NO:53) was synthesized and observed that the time required to generate clearly detectable fluorescence on the beads was reduced to 4-5 hours compared to 10-12 hours for the same peptide sequence lacking the Dap-F linker. […]

[13] = tested on: hK2; test: 8 μg/ml hK2 in PBS buffer; details: human
[14] = tested on: hK2; test: hK2, fluorescence-quenched peptides tested in solution; details: human, up to prolonged incubation
[15] = five consecutive daily intravenous injections of 3.67 μmoles/kg

T1 sequence (P20151 25-261): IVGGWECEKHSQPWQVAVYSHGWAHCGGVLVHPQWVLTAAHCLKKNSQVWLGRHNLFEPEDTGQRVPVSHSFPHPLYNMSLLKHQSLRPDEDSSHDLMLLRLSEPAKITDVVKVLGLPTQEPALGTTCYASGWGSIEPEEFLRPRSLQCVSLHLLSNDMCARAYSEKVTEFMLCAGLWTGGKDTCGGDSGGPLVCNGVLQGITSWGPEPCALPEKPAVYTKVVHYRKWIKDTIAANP

CC=C(C)C(=O)OC1C(C)=C2C(C1OC(=O)CCCCCCC)C(C)(OC(C)=O)CC(OC(=O)CCCCCCCCCCCNC(=O)C(N)CC(C)C)C1(O)C2OC(=O)C1(C)O [L12ADT, 8-O-(12-[L-leucinoylamino]dodecanoyl)-8-O-debutanoylthapsigargin]
LD50 [1]: ~30 nM

C/C=C(/C)C(=O)O[C@H]1C(C)=C2[C@H]([C@@H]1OC(=O)CCCCCCC)[C@@](C)(OC(C)=O)C[C@H](OC(=O)CCCCCCCCCCCNC(=O)[C@H](CC(C)C)NC(=O)[C@H](CCCNC(=N)N)NC(=O)[C@H](CCCNC(=N)N)NC(=O)[C@H](Cc1ccccc1)NC(=O)[C@H](C)NC(=O)[C@H](CCCCN)NC(=O)CNC(C)=O)[C@@]1(O)[C@H]2OC(=O)[C@@]1(C)O [ac-GKAFRR-L12ADT] (Ac-GKAFRRL-X1)
plasma stability of the prodrug (in words) [2]: No degradation products could be identified | stability in the serum in vivo (in words) [3]: highly stable to hydrolysis in the serum in vivo | half-life ([3]; mouse, plasma): 40.7 ± 1.2 min | AUC(0-inf) ([3]; mouse, plasma, read-out: area under the curve (converted)): 40.7 µM·h | Cmax ([3]; mouse, plasma): 36.8 ± 7.2 µM | single intravenous dose tolerated by all mice ([4]; Balb-C mice, single intravenous dose): 3.67 µmol/kg | toxicity of repeated dosing (in words) [4, 15]: without any deaths or observable toxicity | weight loss over baseline [4, 15]: < 15%

Abz-GKAFRRLY′
not cleaved [5]: No appreciable hydrolysis; relative rate 1 (approximately 0.1% digestion in 1 hour) | not cleaved [6]: No appreciable hydrolysis; relative rate 1 (approximately 0.1% digestion in 1 hour)

Ac-GKAFRR-L12ADT
cleaved bond [7]: Arg-Leu | not cleaved [5]: No appreciable hydrolysis; relative rate 1 (approximately 0.1% digestion in 1 hour) | not cleaved [6]: No appreciable hydrolysis; relative rate 1 (approximately 0.1% digestion in 1 hour) | cleaved bond [8]: arginine-arginine | not cleaved [9]: no activity on the prodrug; relative rate 1 (approximately 0.1% digestion in 1 hour) | not cleaved [10]: only a single peak corresponding to the hK2 prodrug after 24 hrs; no degradation products

Pro-Phe-Arg-{AMC}
Km [11]: 40 µM | kcat [11]: 0.92 s⁻¹

Y′GKAFRL-Dap-F-K′-PEGA: test peptide on PEGA resin with Dap-F linker ([Tyr(3-NO2)]GKAFRL[Dap]FK(Abz)-{PEGA resin})
incubation time to yield clearly detectable fluorescent beads [12]: 4 to 5 h

Y′GKAFRLK′-PEGA: test hK2 peptide substrate on PEGA resin ([Tyr(3-NO2)]GKAFRLK(Abz)-{PEGA resin})
incubation time to yield clearly detectable fluorescent beads [12]: 10 to 12 h

Y′GSKGHFKL-Dap-F-K′
not cleaved [13]: did not show any hydrolysis

Y′GSKGHFKL-Dap-K′
not cleaved [14]: not digested by hK2, even after prolonged incubation

Y′GSKGPFKL-Dap-K′
not cleaved [14]: not digested by hK2, even after prolonged incubation
